Reference: PMC5729604, “Dual inhibitors of hepatitis C virus and hepatocellular carcinoma: design, synthesis and docking studies” (Future Science OA, 2017)
Values after ≈ are worked out from the molar mass of the structure shown.

Key:
[1] = In vitro hemolytic assay; assay type: cell-based; conditions: 2% erythrocyte suspension (washed red blood cells); 2% erythrocyte suspension, 3 μl of 1 mg/ml compound in DMF per 240 μl well, 37°C 30 min, absorbance 405 nm; <5% considered nontoxic
Procedure: (§1) Compounds 5a-x and 6a-h were subjected to the in vitro hemolytic assay to identify those which cause hemolysis to red blood cells (RBCs). Consequently, these compounds would be toxic in vivo so they were excluded from further biological screening.
(§2) Blood samples (5 ml) were freshly collected into heparinized tubes and were centrifuged (1000 r.p.m. for 20 min) at room temperature. The plasma and buffy coat were removed by Pasteur pipette, and the collected erythrocytes were washed three-times using isotonic buffer solution (0.9% sodium chloride [Sigma-Aldrich, MO, USA]) by centrifugation (2500 r.p.m. for 10 min). A two percent erythrocyte suspension was prepared to be used in the assay.
(§3) A 1 mg/ml stock solution of each compound was prepared in DMF (Sigma-Aldrich). Compound wells were prepared by adding 3 μl of the compound solution to 117 μl isotonic buffer solution and 120 μl erythrocyte suspension. Compounds color blank wells were prepared by adding 3 μl compound to 237 μl isotonic buffer solution. Solvent (DMF) wells were prepared by adding 3 μl DMF to 117 μl isotonic buffer solution and 120 μl erythrocyte suspension. Positive control wells (representing 100% hemolysis) were prepared by adding 120 μl erythrocyte suspension to 120 μl distilled water, while negative control wells (representing 0% hemolysis) were prepared by adding 120 μl erythrocyte suspension to 120 μl isotonic buffer solution. Finally, blank wells contained only 240 μl isotonic buffer solution. Each set of samples was pipetted in triplicate. The microtiter plate was then shaken well on bench, incubated at 37°C for 30 min then centrifuged (2000 rpm for 5 min) at room temperature.
(§4) A fraction of the supernatant layer (150 μl) of each well was transferred to another 96-well microtiter plate. Erythrocyte hemolysis was determined by reading the absorbance (A) of liberated hemoglobin at 405 nm in the supernatant fraction compared with the 100% hemolysis of erythrocyte. The average value was calculated from triplicate assay: [drawing 2]

[2] = Solubility in DMF or DMSO under experimental conditions; assay type: physicochemical
[3] = system: red blood cells (RBCs); assay: In vitro hemolytic assay; assay type: cell-based; conditions: <5% hemolysis nontoxic, 5% or more toxic and hemolytic
Procedure: as §1, §2, §3, §4

[4] = system: human HCC cell line HepG2; assay: cells; assay type: cell-based; conditions: Homo sapiens, HepG2, 72 h, 72 h, neutral red; Supplementary Table 2; read-out: Anticancer (HepG2) IC50
Procedure: The safe compounds on RBCs (5a-g, 5i-l, 5p-r, 5v-w, 6b-g) were screened for their potential anticancer activity against human HCC cell line HepG2. HepG2 cells were exposed to the test compounds, then viability of cells was measured using neutral red uptake assay as described by Borenfreund and Puerner. This assay depends on the fact that neutral red dye can be incorporated into the lysosomes of living cells providing a quantitative assay to the cytotoxic effects. The results were interpreted to calculate both the concentration causing 50% cancer cell death (IC50) of each compound and the maximum safe concentration that cause 100% viability (LD0; to be used in the in vitro anti-HCV testing) using GraphPad InStat 3.0 software (Figure 5 & Supplementary Table 2).
HepG2 cells were routinely maintained as adherent cell cultures in RPMI-1640 medium (Lonza Group Ltd, Basel, Switzerland) supplemented with 10% fetal bovine serum (FBS; Lonza, IL, USA) at 37°C in a humidified air incubator containing 5% CO2. Cells were subcultured for 2 weeks before assay. Cell viability was assessed using trypan blue exclusion method.
HepG2 cells were washed twice in RPMI-1640 medium supplemented with 200 μM L-glutamine (Lonza) and […] 4-(2-hydroxyethyl)-1-piperazineethanesulfonic acid (HEPES) buffer (Lonza). The cells were suspended at 3 × 10^4 cells/ml in RPMI culture medium (RPMI supplemented medium and 10% FBS). The appropriate number of cells was chosen to be 3 × 10^3 cells/well (100 μl of the prepared suspension), and the cells were left to adhere on the polystyrene 96-well plates in an incubator at 37°C, 5% CO2 and 95% humidity for 24 h. The cells were washed once using RPMI supplemented medium.
A 2 mg/ml stock solution of each compound was prepared in DMF and filtered using a 0.2 μM syringe filter. The desired concentrations (20, 10, 5, 2.5 and 1.25 μg/ml) were prepared using serial dilution in a 96-well plate. Compound wells were prepared by adding 100 μl of the previously prepared concentrations to a 100 μl of HepG2 cells suspension. Parallel concentrations of the solvent were prepared to be used as controls. 5-Fluorouracil was used as a positive control. Control wells were prepared by adding 100 μl culture media to a 100 μl of HepG2 cells suspension. Blank wells contained 200 μl of culture media only (without cells or compound solution). Each set of samples was pipetted in duplicate. The plate was gently shaken, then incubated at 37°C, 5% CO2 for 72 h.
After incubation, the plate was centrifuged (2000 r.p.m. for 10 min). The media were discarded by inversion over paper towels. A working solution (100 μg/ml) of neutral red stain (Bio Basic Inc, Markham, Canada) was prepared, and 100 μl of this solution was added to each well, then the plate was gently shaken. The plate was incubated at 37°C in humidified 5% CO2 for 3 h, and then centrifuged (2000 r.p.m. for 10 min). Excess dyes were discarded, and the cells were fixed with 100 μl fixing solution (0.5% formalin with 1% calcium chloride [Sigma-Aldrich]) for 1 min. Cells were destained in 100 μl destaining solution (50% ethanol with 1% glacial acetic acid [Sigma-Aldrich]) for 5 min by shaking. The stain intensity was assayed using automated microplate reader spectrophotometer adjusted at 490 nm. Surviving cell fraction was calculated according to the following equation: [drawing 3]
The results were interpreted to calculate both the concentration causing 50% cancer cell death (IC50) of each compound and the maximum safe concentration that cause 100% viability (LD0; to be used in the in vitro anti-HCV testing) using GraphPad InStat 3.0 software.

Row | melting point [°C] | solubility in DMF or DMSO [2] | Compound | hemolysis at 30 min, 12.5 µg/ml [1] [%] | further results
1 | > 300 |  | COc1ccc(-c2nn(-c3ccccc3)cc2C=C2SC(=NN=C(C)c3nc4ccccc4[nH]3)N(c3ccccc3)C2=O)cc1 [Compound 5o, 2-[1-(1H-Benzimidazole-2-yl)ethylidenehydrazono]-5-{[3-(4-methoxyphenyl)-1-phenyl-1H-pyrazol-4-yl]methylene}-3-phenylthiazolidin-4-one] | 15.1 | 
2 |  | could not be dissolved | COc1ccc(N2C(=O)C(=Cc3cn(-c4ccccc4)nc3-c3ccccc3)SC2=NN=C(C)c2nc3ccccc3[nH]2)cc1 [Compound 5s, 2-[1-(1H-Benzimidazole-2-yl)ethylidenehydrazono]-5-[(1,3-Diphenyl-1H-pyrazol-4-yl)methylene]-3-(4-methoxyphenyl)thiazolidin-4-one] |  | 
3 |  | could not be dissolved | COc1ccc(-c2nn(-c3ccccc3)cc2C=C2SC(=NN=C(C)c3nc4ccccc4[nH]3)N(c3ccc(OC)cc3)C2=O)cc1 [Compound 5u, 2-[1-(1H-Benzimidazole-2-yl)ethylidenehydrazono]-5-{[3-(4-methoxyphenyl)-1-phenyl-1H-pyrazol-4-yl]methylene}-3-(4-methoxyphenyl)thiazolidin-4-one] |  | 
4 | > 300 |  | CC(=NN=C1SC(=Cc2cn(-c3ccccc3)nc2-c2ccc(Cl)cc2)C(=O)N1c1ccccc1)c1nc2ccccc2[nH]1 [Compound 5n, 2-[1-(1H-Benzimidazole-2-yl)ethylidenehydrazono]-5-{[3-(4-chlorophenyl)-1-phenyl-1H-pyrazol-4-yl]methylene}-3-phenylthiazolidin-4-one] | 9.52 | 
5 | 280 to 282 | could not be dissolved | COc1ccc(N2C(=O)C(=Cc3cn(-c4ccccc4)nc3-c3ccc(Cl)cc3)SC2=NN=C(C)c2cc3ccccc3o2)cc1 [Compound 5h, 2-[1-(Benzofuran-2-yl)ethylidenehydrazono]-5-{[3-(4-chlorophenyl)-1-phenyl-1H-pyrazol-4-yl]methylene}-3-(4-methoxyphenyl)thiazolidin-4-one] |  | 

Continued, molecule first:

Row | Compound | melting point [°C] | solubility in DMF or DMSO [2] | hemolysis at 30 min, 12.5 µg/ml [1] [%] | further results
6 | COc1ccc(N2C(=O)C(=Cc3cn(-c4ccccc4)nc3-c3ccc(Cl)cc3)SC2=NN=C(C)c2nc3ccccc3[nH]2)cc1 [Compound 5t, 2-[1-(1H-Benzimidazole-2-yl)ethylidenehydrazono]-5-{[3-(4-chlorophenyl)-1-phenyl-1H-pyrazol-4-yl]methylene}-3-(4-methoxyphenyl)thiazolidin-4-one] |  | could not be dissolved |  | 
7 | CC(=NN=C1SC(=Cc2cn(-c3ccccc3)nc2-c2ccccc2)C(=O)N1c1ccccc1)c1nc2ccccc2[nH]1 [Compound 5m, 2-[1-(1H-Benzimidazole-2-yl)ethylidenehydrazono]-5-[(1,3-Diphenyl-1H-pyrazol-4-yl)methylene]-3-phenylthiazolidin-4-one] | > 300 |  | 11.7 | 
8 | CC(=NN=C1SC(=C2C(=O)Nc3ccccc32)C(=O)N1C1CCCCC1)c1nc2ccccc2[nH]1 [Compound 6h, 2-[1-(1H-Benzimidazole-2-yl)ethylidenehydrazono]-5-(2-oxoindolin-3-ylidene)-3-cyclohexylthiazolidin-4-one] |  |  | 7.56 | toxicity to RBCs (hemolysis), in words [3]: cause hemolysis to RBCs
9 | CC(=NN=C1SC(=C2C(=O)Nc3ccccc32)C(=O)N1c1ccccc1)c1cc2ccccc2o1 [Compound 6a, 2-[1-(Benzofuran-2-yl)ethylidenehydrazono]-5-(2-oxoindolin-3-ylidene)-3-phenylthiazolidin-4-one] |  |  | 11.2 | toxicity to RBCs (hemolysis), in words [3]: cause hemolysis to RBCs
10 | O=c1[nH]cc(F)c(=O)[nH]1 [Compound 5-FU, 5-Fluorouracil, reference compound] |  |  |  | IC50 [4]: 0.9 µg/mL (≈ 6.92 µM)
11 | COc1ccc(-c2nn(-c3ccccc3)cc2C=C2SC(=NN=C(C)c3nc4ccccc4[nH]3)N(C3CCCCC3)C2=O)cc1 [Compound 5x, 2-[1-(1H-Benzimidazole-2-yl)ethylidenehydrazono]-5-{[3-(4-methoxyphenyl)-1-phenyl-1H-pyrazol-4-yl]methylene}-3-cyclohexylthiazolidin-4-one] | 215 to 217 |  | 8.74 | toxicity to RBCs (hemolysis), in words [3]: cause hemolysis to RBCs
